Test results taken from the PolyMetriX glass transition set.
± gives the standard deviation of the reports.

glass transition temperature [°C]	Compound
254.00	*Nc1cc(NC(=O)c2ccc(-c3ccc(C(*)=O)cc3)cc2)cc(C(=O)OCCOc2ccc(/C=C/C(=O)c3ccccc3)cc2)c1 (repeat unit)
79.00	*c1ccc(C(=O)OCCCCCCCCCCOC(=O)c2ccc(-c3nnc(*)s3)cc2)cc1 (repeat unit)
248.00	*Oc1ccc(Oc2ccc(C(=O)c3ccc(*)c(S(=O)(=O)O)c3)cc2S(=O)(=O)O)cc1S(=O)(=O)O (repeat unit)
223.00	*c1ccc(Oc2ccc(-c3cnnc(-c4cccc(-c5ncc(*)nn5)n4)n3)cc2)cc1 (repeat unit)
67.00	*O[Si](C)(C)c1ccc(-c2ccc([Si](*)(C)C)cc2)cc1 (repeat unit)
231.00	*Oc1ccc2cc(Oc3ccc(S(=O)(=O)c4ccc(*)cc4)cc3)ccc2c1 (repeat unit)
289.00	*c1ccc2c(c1)C(=O)N(c1c(C)cc(C(c3ccccc3)(c3cc(C)c(N4C(=O)c5ccc(C(*)(C(F)(F)F)C(F)(F)F)cc5C4=O)c(C(C)C)c3)C(F)(F)F)cc1C(C)C)C2=O (repeat unit)
105.00	*NC1CCC(CCC2CCC(NC(=O)CCCCCCCCCCC(*)=O)CC2)CC1 (repeat unit)
28.00	*Oc1ccccc1C(=O)OC(=O)c1ccccc1OC(=O)CCCCCCCCC(*)=O (repeat unit)
89.00	*CCCCCCCCNC(=O)C(OC)C(OC)C(=O)N* (repeat unit)
263.00	*c1cc(N2C(=O)c3ccc(Oc4ccc5c(c4)C(=O)N(*)C5=O)cc3C2=O)c(O)cc1O (repeat unit)
55.00	*CCCCCCn1ccc(-c2ccc(-c3ccn(*)n3)cc2)n1 (repeat unit)
275.00	*c1cccc(N2C(=O)c3cccc(Oc4ccc(-c5ccc(Oc6cccc7c6C(=O)N(*)C7=O)cc5)cc4)c3C2=O)c1 (repeat unit)
248.00	*C(=O)c1ccc2c(c1)/C(=N\c1ccc(Oc3ccc(C(c4ccc(Oc5ccc(/N=C6/OC(=O)c7ccc(*)cc76)cc5)cc4)(C(F)(F)F)C(F)(F)F)cc3)cc1)OC2=O (repeat unit)
100.00	*CC(O)COc1ccc(C(C)(C)c2ccc(OCC(O)CN3CCN(*)CC3)cc2)cc1 (repeat unit)
43.00	*CCCS(=O)(=O)CCCCS(=O)(=O)CCCOC(=O)O* (repeat unit)
114.00	*Cc1cc(COC(=O)Nc2ccc(Cc3ccc(NC(=O)O*)cc3)cc2)cc(C(C)(C)C)c1 (repeat unit)
182.00	*CCCOc1ccc(-c2ccc(O*)c3ccccc23)c2ccccc12 (repeat unit)
252.00	*C(=O)c1ccc2c(c1)C(=O)N(c1ccc(-c3ccc(Oc4ccc(C5(C)CC(C)(C)c6ccc(Oc7ccc(-c8ccc(N9C(=O)c%10ccc(*)cc%10C9=O)cc8)cc7C(F)(F)F)cc65)cc4)c(C(F)(F)F)c3)cc1)C2=O (repeat unit)
47.00	*CCCCCCCCCCCCCCNC(=O)NCCCCCCNC(=O)N* (repeat unit)
262.00	*c1ccc2c(c1)C(=O)N(c1ccc(-c3ccc(Oc4ccc5c(c4)C(C)(c4ccc(Oc6ccc(-c7ccc(N8C(=O)c9ccc(C(*)(C(F)(F)F)C(F)(F)F)cc9C8=O)cc7)cc6C(F)(F)F)cc4)CC5(C)C)c(C(F)(F)F)c3)cc1)C2=O (repeat unit)
51.00	*c1ccc(-c2cc(CCCCCCBr)c(*)s2)s1 (repeat unit)
200.00	*Oc1ccc(C2(c3ccc(OC(*)=O)c(Cl)c3)CC3CCC2C3)cc1Cl (repeat unit)
140.00	*CCOC(=O)NC1CCC(CC2CCC(NC(=O)OCCOc3ccc(C4(c5ccc(O*)cc5)c5ccccc5-c5ccccc54)cc3)CC2)CC1 (repeat unit)

glass transition temperature [°C]	Compound
209.00	*Oc1ccc(Oc2ccc(NC(=O)c3ccc(Oc4ccc(Oc5ccc(C(=O)Nc6ccc(*)cc6)cc5)cc4-c4ccccc4)cc3)cc2)cc1 (repeat unit)
107.00	*CC1CCCC(CNC(=O)CCCCC(=O)N*)C1 (repeat unit)
276.00	*c1ccc2c(c1)C(=O)N(c1ccccc1Oc1ccc(N3C(=O)c4ccc(C(*)(C(F)(F)F)C(F)(F)F)cc4C3=O)cc1)C2=O (repeat unit)
201.00	*c1ccc(Oc2ccc(Sc3ccc(Oc4ccc(N5C(=O)c6ccc(Oc7ccc(Oc8ccc9c(c8)C(=O)N(*)C9=O)cc7)cc6C5=O)cc4)cc3)cc2)cc1 (repeat unit)
53.00	*Oc1ccc(CC(NC(=O)CCc2ccc(OC(=O)CCC(C)CC(*)=O)cc2)C(=O)OC)cc1 (repeat unit)
37.00	*OC(C)COC(C)COC(=O)c1ccc(C(*)=O)cc1 (repeat unit)
106.00	*CCCCCCNC(=O)C(OC)C(OC)C(=O)N* (repeat unit)
233.00	*C(=O)c1ccc2c(c1)C(=O)N(c1ccc(Oc3ccc(C(=O)c4ccc(C(=O)c5ccc(C(=O)c6ccc(Oc7ccc(N8C(=O)c9ccc(*)cc9C8=O)cc7)cc6)cc5)cc4)cc3)cc1)C2=O (repeat unit)
295.00	*c1ccc(Oc2ccc(-c3nc4cc(Oc5ccc(NC(=O)c6cc(C(=O)Nc7ccc(Oc8ccc9nc(-c%10ccccc%10)c(*)nc9c8)cc7)cc(N7C(=O)c8c(Cl)c(Cl)c(Cl)c(Cl)c8C7=O)c6)cc5)ccc4nc3-c3ccccc3)cc2)cc1 (repeat unit)
80.00	*CCN(CCOC(=O)c1cc(OCCN(C)c2ccc(S(=O)(=O)CCCCCCCC)cc2)cc(C(=O)O*)c1)c1ccc(S(=O)(=O)C(F)(F)C(F)(F)C(F)(F)C(F)(F)C(F)(F)C(F)(F)C(F)(F)C(F)(F)F)cc1 (repeat unit)
204.00	*Oc1ccc(C(=O)c2cccc(NC(=O)c3cccc(C(=O)Nc4ccc(C(=O)c5ccc(*)cc5)cc4)c3)c2)cc1 (repeat unit)
311.00	*C(=O)c1ccc2c(c1)C(=O)N(c1cccc(C(c3ccccc3)(c3cccc(N4C(=O)c5ccc(*)cc5C4=O)c3)C(F)(F)F)c1)C2=O (repeat unit)
176.00	*c1ccc(Oc2ccc(C(C)(C)c3ccc(Oc4ccc(N5C(=O)c6ccc(Oc7ccc(C(C)(C)c8ccc(Oc9ccc%10c(c9)C(=O)N(*)C%10=O)cc8)cc7)cc6C5=O)cc4)cc3)cc2)cc1 (repeat unit)
296.00	*Oc1ccc(NC(=O)c2ccc(-c3ccc(C(=O)Nc4ccc(Oc5ccc(C6(c7ccc(*)cc7)CC7CCC6C7)cc5)cc4)cc3)cc2)cc1 (repeat unit)
58.00	*CC(*)(C)C(=O)OCCCCCCCCCCn1c2ccccc2c2cc(/C=C(\C#N)C(=O)OC)ccc21 (repeat unit)
217.00	*Oc1ccc(Oc2ccc(C(=O)Nc3ccc(Oc4ccc(S(=O)(=O)c5ccc(Oc6ccc(NC(=O)c7ccc(*)cc7)cc6)cc5)cc4)cc3)cc2)cc1C (repeat unit)
110.00	*CCCCCC(=O)Oc1ccc(C(C)(C)c2ccc(OC(=O)c3ccc4c(c3)C(=O)N(*)C4=O)cc2)cc1 (repeat unit)
227.00	*c1ccc2c(c1)C(=O)N(c1ccc(N(C)CCN(C)c3ccc(N4C(=O)c5ccc(C(*)(C(F)(F)F)C(F)(F)F)cc5C4=O)cc3)cc1)C2=O (repeat unit)
-25.00	*O[Si](C)(CCC(F)(F)F)CCC(F)(F)C(F)(F)C(F)(F)C(F)(F)CC[Si](*)(C)CCC(F)(F)F (repeat unit)
235.00	*C(=O)Nc1ccc(Oc2ccc(C(C)(C)c3ccc(Oc4ccc(NC(=O)c5ccc6c(c5)C(=O)N(c5ccc(Oc7cccc8c(Oc9ccc(N%10C(=O)c%11ccc(*)cc%11C%10=O)cc9)cccc78)cc5)C6=O)cc4)cc3)cc2)cc1 (repeat unit)
78.00	*O[Si](C)(C)O[Si](C)(C)O[Si](C)(C)O[Si](C)(C)O[Si](C)(C)C#Cc1ccc(C#C[Si](*)(C)C)cc1 (repeat unit)
238.00	*c1nnc(-c2ccc(Oc3ccc(/C=C/c4ccc(Oc5ccc(*)c6ccccc56)cc4)cc3)c3ccccc23)o1 (repeat unit)
-78.00	*O[Si](*)(C)CCCCCCCCCCC(F)(F)C(F)(F)C(F)(F)C(F)(F)C(F)(F)C(F)(F)C(F)(F)C(F)(F)F (repeat unit)

Compound	glass transition temperature [°C]
*CCC(C)CCC(=O)O* (repeat unit) [Poly(oxycarbonyl-3-methylpentamethylene) ]	-53 ± 0.6
*CCCCCCCCCCOc1ccc(/C=C/c2ccc(OCCCCCCCCCCOP(=O)(O*)OCCCCCCCCCCOc3ccc(/N=N/c4ccccc4)cc3)cc2)cc1 (repeat unit)	55.00
*c1cccc(P(=O)(c2ccccc2)c2cccc(-n3c(=O)c4cc5c(=O)n(*)c(=O)c5c(-c5ccccc5)c4c3=O)c2)c1 (repeat unit)	325.00
*Oc1ccc(C(=O)Nc2ccc(C(c3ccc(NC(=O)c4ccc(*)cc4)cc3)(P3(=O)Oc4ccccc4-c4ccccc43)P3(=O)Oc4ccccc4-c4ccccc43)cc2)cc1 (repeat unit)	243.00
*CCc1ccc(*)c2ccccc12 (repeat unit)	160.00
*CCC1CC(*)C2CCCC12 (repeat unit)	101.00
*C(F)(F)C(*)(F)OC(F)(F)F (repeat unit)	-5.00
*CC(CC(C)C)S(*)(=O)=O (repeat unit)	23.00
*Oc1ccc(N[Se]Nc2ccc(*)cc2)cc1 (repeat unit)	55.00
*CCNC(=O)c1cccc(O*)c1 (repeat unit)	106.00
*OC(=O)Cc1ccc(CC(*)=O)cc1 (repeat unit)	65.00
*CC(*)(C)C(=O)O[Si](C)(C)C (repeat unit)	97.50
*CC(*)c1cccs1 (repeat unit)	71.00
*c1ccc2c(c1)C(=O)N(c1ccc(OCCN(CCOc3ccc(N4C(=O)c5ccc(C(*)(C(F)(F)F)C(F)(F)F)cc5C4=O)cc3)c3ccccc3)cc1)C2=O (repeat unit)	170.00
*CC(=O)NCC(=O)O* (repeat unit)	67.00
